Results: patent US20220362182A1, “METHODS FOR REVERSING HEPATIC STEATOSIS” (BRIGHTSEED, INC., priority 2020, published 2022)

Columns and labels:
estrogenic activity = assay: assay for estrogenic activity; format: cell-based; details: false-positive counter assay
PPARγ receptor = molecular target: T1, PPARγ receptor (Homo sapiens, UniProt P37231); assay: assay for PPARγ agonist activity; format: cell-based; details: false-positive counter assay
T1 sequence (P37231 1-505): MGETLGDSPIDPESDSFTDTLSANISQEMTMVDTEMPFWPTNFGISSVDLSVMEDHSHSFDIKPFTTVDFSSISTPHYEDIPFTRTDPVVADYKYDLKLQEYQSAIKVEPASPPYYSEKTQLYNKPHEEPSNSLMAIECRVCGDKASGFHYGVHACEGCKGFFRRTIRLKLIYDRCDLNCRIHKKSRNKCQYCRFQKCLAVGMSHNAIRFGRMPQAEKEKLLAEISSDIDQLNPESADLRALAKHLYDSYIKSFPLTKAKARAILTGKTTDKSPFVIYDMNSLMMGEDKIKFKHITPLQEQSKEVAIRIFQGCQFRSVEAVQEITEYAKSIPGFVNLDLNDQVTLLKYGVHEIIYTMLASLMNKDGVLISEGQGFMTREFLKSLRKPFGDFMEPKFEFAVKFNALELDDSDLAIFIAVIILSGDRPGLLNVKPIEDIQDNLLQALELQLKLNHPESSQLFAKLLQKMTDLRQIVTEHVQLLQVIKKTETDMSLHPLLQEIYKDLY

murine PK = details: mouse, in vivo
Description: Murine PK was conducted by WuXi AppTec (Shanghai, China). C57BL/6 male mice of age 7-9 weeks were obtained from SLAC Laboratory Animal Co (Shanghai, China). Mice were fasted for 12 h prior to compound administration. Oral gavage was used for PO dosing. For IV dosing, compound was administered by tail vein injection. For compound concentration determination, 25 μL of blood was collected from the submandibular or saphenous vein and processed for plasma. Plasma concentration of compound was determined by LC-MS/MS.

[1] = animal cells and mice; cited from earlier work
p62 = p62 Western blot in T6PNE cells; format: cell-based, human; details: NCT 10 μM, RA 10 μM, fenretinide
Description: Whole-cell extracts were prepared by incubation in RIPA buffer (Invitrogen) containing protease inhibitors (Calbiochem, San Diego, Calif.). Protein ([…]) was separated on 12% or 16% Tri-Glycine gels (Invitrogen) and transferred to Immobilon P membrane (0.2 μm pore, Millipore). After 1 h in phosphate-buffered saline-Tween (PBST) with 3% milk, membrane was incubated with antibodies to HNF4α (mouse, Novus, 1:1000), LC3B (rabbit, Novus, 1:500), p62 (SQSTM1, mouse, Santa Cruz, 1:1000) or β-actin (mouse, Santa Cruz, 1:2000), followed by secondary antibody conjugated to horseradish peroxidase (1:5000, Jackson Immune).

hepatic steatosis = assay: oral administration in mice (hepatic steatosis); format: in vivo, mouse; details: subsequent studies

Row | Structure (SMILES) | estrogenic activity (estrogenic activity) | PPARγ receptor agonist activity (PPARγ receptor) | oral bioavailability (murine PK) | anti-inflammatory properties [1] | p62 protein expression normalized to actin (p62) | hepatic steatosis after oral administration (hepatic steatosis)
1 | COc1cc(/C=C/C(=O)NCCc2ccc(O)cc2)ccc1O [NFT, N-trans feruloyltyramine] | no estrogenic | no estrogenic or PPARγ receptor agonist activity | poor oral bioavailability | anti-inflammatory properties | – | –
2 | O=C(/C=C/c1ccc(O)c(O)c1)NCCc1ccc(O)cc1 [NCT, N-trans-caffeoyltyramine] | no estrogenic | no estrogenic or PPARγ receptor agonist activity | poor oral bioavailability | anti-inflammatory properties | induced increases | effective in reducing hepatic steatosis in mice
